Laboratory results: US20220313650A1, “METHODS FOR TREATING NEURODEVELOPMENTAL DISORDERS” (The Broad Institute, Inc., priority 2019, published 2022)
Entries after “also recorded” stand apart in the source; their conditions may differ.

How the values were obtained:
[1] = tested on: WT TRN neurons; assay: Whole-cell patch-clamp rebound burst firing in acute brain slices, WT mice; assay type: cell-based
Procedure: (§1) For conducting slice electrophysiology analysis, whole-cell patch-clamp recordings were performed using horizontal slices for the rebound bursting assays and angled-coronal thalamocortical slices for the synaptic optogenetics experiments (Agmon et al., 1991). 21-35 day old male C57BL6 mice and Ptchd1 Y/− (knockout) mice were used. Animals were transcardially perfused under isoflurane anesthesia with an ice-cold cutting solution (194 mM Sucrose, 30 mM NaCl, 4.5 mM KCl, 1.2 mM NaH2PO4, 10 mM Glucose, 2 mM MgCl2, 0.2 mM CaCl2, and 26 mM NaHCO3). Mice were then decapitated and the brains were carefully dissected out. Both cerebellum and olfactory bulb were removed from the brain and were placed and glued onto the stage of a Leica Vibratome with the ventral surface down and the pial surface towards the blade. 250 micron thick slices containing the TRN were then collected and recovered in regular artificial cerebrospinal fluid (aCSF; 119 mM NaCl, 2.3 mM KCl, 1 mM NaH2PO4; 11 mM Glucose, 1.3 mM MgCl2, 2.5 mM CaCl2), 26 mM NaHCO3) heated to 32° C. for 10 minutes and then at room temperature for at least 1 hr. All buffers were continuously bubbled with 95% O2/5% C02. Slices were then transferred to a submersion recording chamber where they were perfused with aCSF at a rate of 2 ml/min at room temperature. Patch recording pipettes were pulled using a Flaming/Brown micropipette puller (Sutter Instruments) and Borosilicate glass (KG33, King Precision Glass). The DC resistances were ˜4-6 MΩ. Potassium methanesulfonate based internal solution (140 mM KMeSO3; 10 mM KCl; 10 mM HEPES; 0.1 mM EGTA; 4 mM Mg-ATP; 0.2 mM Na-GTP; 10 mM hosphocreatine) was used. Neurons were visualized using infrared differential interference contrast (IR-DIC) microscopy (Olympus, BX51W1) with an upright microscope digital camera.
The recordings were made with a microelectrode amplifier with bridge and voltage clamp modes of operation (Multiclamp 700B, Molecular Devices, San Jose, Calif., USA). Signals were low-pass filtered at 2 kHz and sampled at 10-20 kHz with a Digidata 1440A (Molecular Devices, San Jose, Calif., USA). Data were stored on a computer for subsequent off-line analysis. Cells with the series resistance (Rs, typically 8-12 MΩ) changed by >20% were excluded for data analysis. In addition, cells with Rs more than […] at any time during the recordings were discarded.

[2] = tested on: low-threshold T-type Ca2+ channels; assay: T type current recording in TRN neurons; assay type: cell-based, mice; conditions: in the presence of LY379268
Procedure: (§2) For conducting slice electrophysiology analysis, whole-cell patch-clamp recordings were performed using horizontal slices for the rebound bursting assays and angled-coronal thalamocortical slices for the synaptic optogenetics experiments (Agmon et al., 1991). 21-35 day old male C57BL6 mice and Ptchd1 Y/− (knockout) mice were used. Animals were transcardially perfused under isoflurane anesthesia with an ice-cold cutting solution (194 mM Sucrose, 30 mM NaCl, 4.5 mM KCl, 1.2 mM NaH2PO4, 10 mM Glucose, 2 mM MgCl2, 0.2 mM CaCl2, and 26 mM NaHCO3). Mice were then decapitated and the brains were carefully dissected out. Both cerebellum and olfactory bulb were removed from the brain and were placed and glued onto the stage of a Leica Vibratome with the ventral surface down and the pial surface towards the blade. […]
(§3) The channel conductance of SK channels and low-threshold T-type Ca2+ channels at different holding membrane potentials ranging from −80 mV to −50 mV in the presence or absence of SK channel blockers was evaluated in order to further determine how the activation of mGluR2/3 in TRN neurons enhanced the rebound bursting.

[3] = tested on: SK channels; assay: SK current recording in TRN neurons; assay type: cell-based, mice; conditions: in the presence of LY379268
Procedure: as §2, §3

[4] = tested on: cortico-TRN synapses; assay: Optogenetically evoked EPSCs in patched TRN neurons, cortico-TRN pathway; assay type: cell-based, mice
Procedure: as §1
To study the changes in the acute somatosensory thalamocortical or horizontal brain areas, 21-25 days old Nex-Cre or VgluT2-Cre mice were anesthetized with isoflurane while placed in a small animal stereotaxic apparatus (David Kopf Instruments, CA, USA) and were injected bilaterally with 280 nl of mcherry-dflox.hChR2.EF1.AAV1 using a Nanoject (Drummond Scientific, Broomall, Pa.) via glass pipettes with […] diameter tips in somatosensory cortex (S1) and ventrobasal thalamic complex (VB). Coordinates from the bregma for S1: AP −0.7, ML 2.4 and DV 1.2 and for VB: AP −1.6, ML 1.5 and DV 3.5. The pipette was held in the final position for 10 min after injection before withdrawal from the brain. The incision was closed with vetbond and after surgery mice were injected with analgesics (SR-Bupronex 1 mg/kg) every 72 hours or as needed. […]
After allowing 1-2 weeks for mcherry-dflox.hChR2.EF1.AAV1 expression, acute somatosensory thalamocortical or horizontal brain slices were freshly obtained for in vitro recording and optogenetic stimulation (250 um thick, thalamocortical slices containing TRN from angled-coronal sections; Agmon and Connors, 1991) for optogenetic analysis. In brief, patch clamp recordings in voltage clamp configuration were performed while the Cortico-TRN or Thalamic-TRN pathway was activated by applying a blue LED (400-450 nm) light pulses (Lumen 300-LED Fluorescence Excitation Illumination System). For synaptic stimulation, neurons were held at −70 mV while 0.1-1.5 ms flashes were delivered directly to the recorded cell soma delivered through the 40× water immersion objective. […]

[5] = tested on: TRN neurons; assay: Spontaneous EPSC recordings from TRN neurons, WT mice; assay type: cell-based; conditions: LY379268 1 uM, with PTX
Procedure: as §1, with “Patch recording pipettes were pulled using a Flaming/Brown micropipette puller (Sutter Instruments) and Borosilicate glass (KG33, King Precision Glass). The DC resistances were ˜4-6 MΩ. Potassium methanesulfonate based internal solution (140 mM KMeSO3; 10 mM KCl; 10 mM HEPES; 0.1 mM EGTA; 4 mM Mg-ATP; 0.2 mM Na-GTP; 10 mM hosphocreatine) was used. Neurons were visualized using infrared differential interference contrast (IR-DIC) microscopy (Olympus, BX51W1) with an upright microscope digital camera.” left out

## N[C@@]1(C(=O)O)COC2C(C(=O)O)C21 (stereo in doubt) [LY379268, (1R,4R,5S,6R)-4-Amino-2-oxabicyclo[3.1.0] hexane-4,6-dicarboxylic acid]
[1]; LY379268 applied in the presence of (after pretreatment with) ML337
  rebound burst firing, occlusion experiment: no change in repetitive bursting; also recorded: occluded in the presence of ML337
[1]; WT TRN neurons, LY379268 1 μM, after somatic hyperpolarization pulse, holding potentials −80 mV to −50 mV
  number of rebound burst firings: significant increase in the repetitive rebound bursting; also recorded: increase in the number of rebound burst firings; also recorded: Significant changes were detected in a membrane holding potentials between −70 mV and −60 mV; also recorded: Significant changes were detected at membrane holding potentials as indicated
[2]
  current mediated by T (max inward currents, T-type Ca2+ channel conductance): significantly increased
[3]
  current mediated by SK (max outward currents, SK channel conductance): significantly increased
[4]; cortico-TRN synapses, before vs after bath application
  paired-pulse ratio (PPR): significantly changed as well as the paired-pulse ratio; also recorded: significant changes in the size of paired-pulse ratio (PPR)
[4]; cortico-TRN, 20 Hz, LY379268 1 μM bath application
  amplitude of optogenetic evoked EPSCs: amplitude was significantly changed
[5]
  frequency of sEPSCs: significantly reduced the frequency
